Assay results published in patent publication US9283242B2, “Uses of dihydro bases” (priority 2013, dated 2016).
“Also recorded” adds a separate entry of the source.

Legend:
[1] = tested on: HK82-SOS; experiment: REAP mutagenesis assay, HK82-SOS cells; assay type: cell-based, E. coli; conditions: (b) HK82-SOS
Excerpt: All E. coli strains used in this work contain the F′ episome, which enables infection by M13 phage. GW5100 strain was used for large scale preparation of M13 phage DNA, SCS 110 (JM110, end Al) was used for amplification of progeny phage post-electroporation, and NR9050 was the strain of choice for double agar plating with X-GAL for blue-clear detection of plaques. The E. coli strains used to replicate lesion-containing phage were HK81 (as AB1157, but nalA) and HK82 (as AB1157, but nalA alkB22; AlkB-deficient).
Lesion-containing genomes were mixed with the competitor genome (80:20 molar ratio) and electroporated in triplicate into 100 μl competent cells using a 2 mm-gap cuvette and a BTX electroporator set to 2.5 kV and 125 a Typical pulse lengths were 4.9 msec. The cells were immediately transferred to 10 ml LB and an aliquot was immediately plated using the agar overlay method to verify that a minimum of 10^5 independent initial electroporation events occurred in 10 ml of culture. Incubation for 6 h at 37° C. with aeration generated the progeny phage, which were then reamplified in SCS 110 cells (10 μl overnight culture and 100 μl of the 6 h supernatant in 10 ml LB) to dilute out the residual genomic DNA used for electroporation. Single-stranded M13 progeny phage DNA was isolated from 1.4 ml of supernatant using a Q1Aprep Spin M13 Kit with final DNA suspension in 100 μl elution buffer. CRAB forward and reverse primers were used to amplify the region of interest from 15 μl per Q1Aprep elution sample in a total volume of 25 μl containing 50 pmol of each primer, 1×Pfu Turbo buffer, 1.25 U Pfu Turbo DNA polymerase and […] of each dNTP. The PCR program used 30 cycles of 67° C. (1 min) annealing and 72° C. (1 min) extensions. After purification using QIAQUICK PCR purification columns, 4 μl of the PCR product were treated with BbsI (1.5 U) and SAP (0.3 U) in a total volume of 6 μl by incubating at 37° C. for 4 h. After phosphatase inactivation, (80° C. for 5 min), the 5′ ends were then radiolabeled using [γ-^32P]-ATP (1.66 pmol, 10 μCi/μl, 6000 Ci/mmol), cold ATP (16 pmol) and 5 U of OPTIKINASE at 37° C. for 30 min. Following the kinase inactivation at 65° C. for 20 min, the labeled product was then trimmed by HaeIII (10 U in a final volume of 10 μl) at 37° C. for 2 h, and diluted 1:1 in formamide loading dye. PAGE separation on a 20% denaturing gel, run for about 3.5 h at 550 V, until the xylene cyanol dye migrated 10.5 cm, yielded two bands for each sample: an 18-mer originating from the lesion-containing genome and a 21-mer originating from the competitor genome. The gels were visualized on a phosphorimager (Typhoon 7000, GE Healthcare Life Sciences); the band intensities were quantified using IMAGEJ software (National Institutes of Health). Lesion bypass was calculated as the percentage ratio of the intensity of the 18-mer band (lesion signal) to the intensity of the 21-mer band (competitor signal).
The REAP assay methodology is identical to the CRAB assay except for the PCR primers, which amplified only the progeny DNA originating from the lesion-carrying genomes. Following electrophoresis, the 18-mer bands were excised from the gel, crushed and extracted with 200 μl water. After desalting with SEPHADEX G-50 Fine resin spin columns, the samples were lyophilized to dryness, resuspended in 5 μl containing 1 μg P1 Nuclease in 30 mM sodium acetate (pH 5.3) and 10 mM zinc chloride, and incubated at 50° C. for 1 h. One μl of each sample was then spotted onto PEI-TLC plates and separated using 200 ml of a saturated solution of (NH4)2HPO4 adjusted to pH 5.8. After 24 h of development, the TLC plates were air-dried and quantified using phosphorimagery. […]

[2] = Variable temperature FTIR and 2D IR, tautomerism in aqueous solution; assay type: physicochemical; conditions: deuterated 0.5 M phosphate buffer pD 7.9, 10-80° C.
Method: For both 1D FTIR and 2D IR experiments, the H/D exchanged KP1212 was dissolved at a concentration of 20 mg/ml (88 mM) in 0.5 M phosphate buffer pD (pH reading in D2O) 7.9. About 25 μl of sample solution was sandwiched between two CaF2 windows separated by a 50 μm TEFLON spacer. Variable-temperature FTIR spectra were collected using Nicolet 380 FTIR spectrometer at 1.0 cm^−1 resolution with 16 scans per spectrum. Spectra for both the sample and the D2O were collected with the same procedure and the solvent spectra were subtracted from the sample spectra.
Absorptive 2D IR spectra were collected using a 2D IR spectrometer as described in detail previously (Chung, H. S., Khalil, M., Smith, A. W. & Tokmakoff, A. Transient two-dimensional IR spectrometer for probing nanosecond temperature-jump kinetics. Rev. Sci. Instrum. 78, 063101 (2007)). The relative polarizations of the pulses were set to be perpendicular (ZZYY). The waiting time (τ2) between the first two pulses and the third pulse was fixed at 150 fs. The coherence time between the first and the second pulse was scanned in 4 fs steps from −60 fs to 2.8 ps and 2.0 ps for rephasing and non-rephasing spectra, respectively. […]
2D IR spectroscopy is analogous to 2D NMR: sequences of ultrafast IR pulses are employed to excite molecular vibrations, and the energy flow from one vibration to others is then detected. […]

Row | Compound | Mutagenicity, Average % A [1] | Mutagenicity, Average % C [1] | Mutagenicity, Average % G [1] | Mutagenicity, Average % T [1] | tautomerism by FTIR and 2D IR [2]
1 | NC1=NC(=O)N([C@H]2C[C@H](O)[C@@H](CO)O2)CN1 [KP1212, 5-aza-5,6-dihydro-2′-deoxycytidine] | 0.1% | 89.4% | 0.2% | 10.3% | multiple tautomeric forms; also recorded: different tautomeric forms
2 | Nc1ccn([C@H]2C[C@H](O)[C@@H](CO)O2)c(=O)n1 [dC, deoxycytidine] | 0.1% | – | 0.0% | 0.0% | –
